From patent publication US12378243B2, “Quinoline compounds as inhibitors of KRAS” (Incyte Corporation, priority 2021, dated 2025)
pIC50: −log10 of the molar value.

Columns and labels:
KRAS G12D = KRAS G12D (Homo sapiens, UniProt P01116, G12D); assay: GDP-GTP exchange assay, KRAS G12D; type: biochemical; conditions: bodipy-loaded KRAS G12D 2.5 nM, GppNHp 500 uM, SOS1 150 nM; 4 hours pre-incubation, 2 hours incubation; read-out: G12D_exchange
Protocol: Inhibitors were serially diluted in DMSO and a volume of 0.1 μL was transferred to the wells of a black low volume 384-well plate. […] The exchange was initiated by the addition of a 5 μL/well volume containing 1 mM GppNHp and 300 nM SOS1 in assay buffer. […] The reaction plates were incubated at ambient temperature for 2 hours, a time estimated for complete GDP-GTP exchange in the absence of inhibitor.
Either GraphPad prism or Genedata Screener SmartFit was used to analyze the data. The IC50 values were derived by fitting the data to a four parameter logistic equation producing a sigmoidal dose-response curve with a variable Hill coefficient.
“NA” indicates IC50 not available.

KRAS G12V mutant = KRAS G12V mutant (Homo sapiens, UniProt P01116, G12V); assay: GDP-GTP exchange assay, KRAS G12V; type: biochemical; conditions: bodipy loaded KRAS G12V 2.5 nM; 3 hours incubation after adding GppNHp-SOS1 mixture; read-out: G12V_exchange
Caco-2 cells = assay: Caco2 assay (permeability, A-B); type: in vitro ADME; conditions: Papp absorptive direction (A-B), test compound 50 μM, 120 minutes at 37° C.
Protocol: Caco-2 cells are grown at 37° C. in an atmosphere of 5% CO2 in DMEM growth medium supplemented with 10% (v/v) fetal bovine serum, 1% (v/v) nonessential amino acids, penicillin (100 U/mL), and streptomycin (100 μg/mL). Confluent cell monolayers are subcultured every 7 days or 4 days for Caco-2 by treatment with 0.05% trypsin containing […]. Caco-2 cells are seeded in 96-well Transwell plates. The seeding density for Caco-2 cells is 14,000 cells/well. DMEM growth medium is replaced every other day after seeding. Cell monolayers are used for transport assays between 22 and 25 days for Caco-2 cells.
Cell culture medium is removed and replaced with HBSS. To measure the TEER, the HBSS is added into the donor compartment (apical side) and receiver compartment (basolateral side). The TEER is measured by using a REMS Autosampler to ensure the integrity of the cell monolayers. Caco-2 cell monolayers with TEER values ≥300 Ω·cm^2 are used for transport experiments. To determine the Papp in the absorptive direction (A-B), solution of test compound (50 μM) in HBSS is added to the donor compartment (apical side), while HBSS solution with 4% BSA is added to the receiver compartment (basolateral side). The apical volume was 0.075 mL, and the basolateral volume is 0.25 mL. The incubation period is 120 minutes at 37° C. in an atmosphere of 5% CO2. At the end of the incubation period, samples from the donor and receiver sides are removed and an equal volume of acetonitrile is added for protein precipitation. The supernatants are collected after centrifugation (3000 rpm, Allegra X-14R Centrifuge from Beckman Coulter, Indianapolis, IN) for LCMS analysis. The permeability value is determined according to the equation:
[formula] • where the flux rate (F, mass/time) is calculated from the slope of cumulative amounts of compound of interest on the receiver side, SA is the surface area of the cell membrane, VD is the donor volume, and MD is the initial amount of the solution in the donor chamber.
The symbol “+” indicates a Caco-2 value of […], “++” indicates a Caco-2 value of >0.5 but ≤1; and “+++” indicates a Caco-2 value of >1. “NA” indicates IC50 not available.

Chain of KRAS G12V mutant (P01116 1-188 isoform P01116-2 G12V): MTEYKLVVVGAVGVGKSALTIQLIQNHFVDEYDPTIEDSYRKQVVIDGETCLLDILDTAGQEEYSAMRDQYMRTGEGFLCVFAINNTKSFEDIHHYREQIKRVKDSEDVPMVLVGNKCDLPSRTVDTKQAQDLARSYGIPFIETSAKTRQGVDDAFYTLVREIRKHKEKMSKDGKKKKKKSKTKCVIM
Chain of KRAS G12D (P01116 1-188 isoform P01116-2 G12D): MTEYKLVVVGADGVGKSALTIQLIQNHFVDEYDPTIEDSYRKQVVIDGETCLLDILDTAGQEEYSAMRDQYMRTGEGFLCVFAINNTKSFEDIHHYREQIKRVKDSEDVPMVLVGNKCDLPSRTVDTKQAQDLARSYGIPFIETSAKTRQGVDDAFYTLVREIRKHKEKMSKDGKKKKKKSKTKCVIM

pIC50 (KRAS G12D)	pIC50 (KRAS G12V mutant)	Caco-2 (Caco-2 cells; Table 4)	Caco-2 (Caco-2 cells; Table 3)	SMILES
> 7.00	> 7.00	+++ (a Caco-2 value of >1)		Cc1nc2c(F)c(-c3cccc(Cl)c3Cl)c(CCC#N)cc2c2c1cc([C@@H](C)Nc1cnn(C)c1)n2[C@H]1[C@H]2CN[C@@H]1C2 [Example 71, 3-(1-((1R,4R,5S)-2-azabicyclo[2.1.1]hexan-5-yl)-7-(2,3-dichlorophenyl)-6-fluoro-4-methyl-2-((R)-1-((1-methyl-1H-pyrazol-4-yl)amino)ethyl)-1H-pyrrolo[3,2-c]quinolin-8-yl)propanenitrile]
> 7.00	6.00 to 7.00	+++ (a Caco-2 value of >1)		Cc1nc2c(F)c(-c3cccc(Cl)c3Cl)c(CCC#N)cc2c2c1cc([C@@H](C)N(C)C(=O)C1CC1)n2[C@H]1[C@H]2CN[C@@H]1C2 [Example 60, N-((1R)-1-(1-((1R,4R,5S)-2-Azabicyclo[2.1.1]hexan-5-yl)-8-(2-cyanoethyl)-7-(2,3-dichlorophenyl)-6-fluoro-4-methyl-1H-pyrrolo[3,2-c]quinolin-2-yl)ethyl)-N-methylcyclopropanecarboxamide]
> 7.00	> 7.00	+++ (a Caco-2 value of >1)		Cc1nc2c(F)c(-c3cccc(Cl)c3Cl)c(CCC#N)cc2c2c1cc([C@@H](C)NC(=O)c1cccnn1)n2[C@H]1[C@H]2CN[C@@H]1C2 [Example 69, N-((1R)-1-(1-((1R,4R,5S)-2-azabicyclo[2.1.1]hexan-5-yl)-8-(2-cyanoethyl)-7-(2,3-dichlorophenyl)-6-fluoro-4-methyl-1H-pyrrolo[3,2-c]quinolin-2-yl)ethyl)pyridazine-3-carboxamide]
> 7.00	> 7.00	+++ (a Caco-2 value of >1)		Cc1nc2c(F)c(-c3cccc(Cl)c3Cl)c(CCC#N)cc2c2c1cc([C@@H](C)NC(=O)c1cscn1)n2[C@H]1[C@H]2CN[C@@H]1C2 [Example 59, N-((1R)-1-(1-((1R,4R,5S)-2-Azabicyclo[2.1.1]hexan-5-yl)-8-(2-cyanoethyl)-7-(2,3-dichlorophenyl)-6-fluoro-4-methyl-1H-pyrrolo[3,2-c]quinolin-2-yl)ethyl)thiazole-4-carboxamide]
> 7.00	> 7.00	+++ (a Caco-2 value of >1)		Cc1cc(C(C)c2cc3c(C)nc4c(F)c(-c5cccc(Cl)c5C)c(CCC#N)cc4c3n2[C@H]2[C@H]3CN[C@@H]2C3)c(=O)n(C)n1 (stereo partly drawn) [Example 67, 3-(1-((1R,4R,5S)-2-azabicyclo[2.1.1]hexan-5-yl)-7-(3-chloro-2-methylphenyl)-2-(1-(2,6-dimethyl-3-oxo-2,3-dihydropyridazin-4-yl)ethyl)-6-fluoro-4-methyl-1H-pyrrolo[3,2-c]quinolin-8-yl)propanenitrile]
> 7.00	> 7.00	++ (a Caco-2 value of >0.5 but ≤1)		Cc1nc2c(F)c(-c3cccc(Cl)c3Cl)c(CCC#N)cc2c2c1cc([C@@H](C)NS(=O)(=O)C1CC1)n2[C@H]1[C@H]2CN[C@@H]1C2 [Example 58, N-((1R)-1-(1-((1R,4R,5S)-2-Azabicyclo[2.1.1]hexan-5-yl)-8-(2-cyanoethyl)-7-(2,3-dichlorophenyl)-6-fluoro-4-methyl-1H-pyrrolo[3,2-c]quinolin-2-yl)ethyl)cyclopropanesulfonamide]

Second part, the molecule before the results:

SMILES	pIC50 (KRAS G12D)	pIC50 (KRAS G12V mutant)	Caco-2 (Caco-2 cells; Table 4)	Caco-2 (Caco-2 cells; Table 3)
Cc1nc2c(F)c(-c3cccc(Cl)c3Cl)c(CCC#N)cc2c2c1cc([C@H]1C[C@H]3C[C@H]3N1C(=O)C1(F)CC1)n2[C@H]1[C@H]2CN[C@@H]1C2 [Example 64, 3-(1-((1R,4R,5S)-2-Azabicyclo[2.1.1]hexan-5-yl)-7-(2,3-dichlorophenyl)-6-fluoro-2-((1R,3R,5R)-2-(1-fluorocyclopropane-1-carbonyl)-2-azabicyclo[3.1.0]hexan-3-yl)-4-methyl-1H-pyrrolo[3,2-c]quinolin-8-yl)propanenitrile]	> 7.00	6.00 to 7.00	+++ (a Caco-2 value of >1)	
Cc1cnc(-c2nc3c(F)c(-c4cccc(Cl)c4C)c(CCC#N)cc3c3c2cc([C@@H](C)n2ccncc2=O)n3[C@H]2[C@H]3CN[C@@H]2C3)cn1 (single isomer, unassigned) [Example 38]	> 7.00	> 7.00	+++ (a Caco-2 value of >1)	
Cc1cc2c(-c3c(CCC#N)cc4c(nc(O[C@@H](C)[C@@H]5CCCN5C)c5cc(C)n([C@H]6[C@H]7CN[C@@H]6C7)c54)c3F)c[nH]c2cc1F [Example 3, 3-(1-((1R,4R,5S)-2-Azabicyclo[2.1.1]hexan-5-yl)-6-fluoro-7-(6-fluoro-5-methyl-1H-indol-3-yl)-2-methyl-4-((S)-1-((S)-1-methylpyrrolidin-2-yl)ethoxy)-1H-pyrrolo[3,2-c]quinolin-8-yl)propanenitrile]	> 7.00	> 7.00		+ (a Caco-2 value of 50.5)
CC(O)c1nc2c(F)c(-c3cccc(Cl)c3Cl)c(CCC#N)cc2c2c1cc([C@H]1C[C@H]3C[C@H]3N1C(=O)C1(C)CC1)n2[C@H]1[C@H]2CN[C@@H]1C2 (stereo partly drawn) [Example 62, 3-(1-((1R,4R,5S)-2-Azabicyclo[2.1.1]hexan-5-yl)-7-(2,3-dichlorophenyl)-6-fluoro-4-(1-hydroxyethyl)-2-((1R,3R,5R)-2-(1-methylcyclopropane-1-carbonyl)-2-azabicyclo[3.1.0]hexan-3-yl)-1H-pyrrolo[3,2-c]quinolin-8-yl)propanenitrile]	> 7.00	> 7.00	+++ (a Caco-2 value of >1)	
Cc1nc2c(F)c(-c3cccc(Cl)c3Cl)c(CCC#N)cc2c2c1cc([C@H]1C[C@H]3C[C@H]3N1C(=O)C1CC1)n2[C@H]1[C@H]2CN[C@@H]1C2 [Example 49, 3-(1-((1R,4R,5S)-2-Azabicyclo[2.1.1]hexan-5-yl)-2-((1R,3R,5R)-2-(cyclopropanecarbonyl)-2-azabicyclo[3.1.0]hexan-3-yl)-7-(2,3-dichlorophenyl)-6-fluoro-4-methyl-1H-pyrrolo[3,2-c]quinolin-8-yl)propanenitrile]	> 7.00	> 7.00	+++ (a Caco-2 value of >1)	
Cc1cnc(-c2nc3c(F)c(-c4cc(O)cc5ccccc45)c(CCC#N)cc3c3c2cc(C)n3[C@H]2[C@H]3CN[C@@H]2C3)cn1 (single isomer, unassigned) [Example 14]	> 7.00	> 7.00		++ (a Caco-2 value of >0.5 but ≤1)
Cc1cc2c(O[C@@H](C)[C@@H]3CCCN3C)nc3c(F)c(-c4cccc5cccc(C#N)c45)c(CCC#N)cc3c2n1[C@H]1[C@H]2CN[C@@H]1C2 (single isomer, unassigned) [Example 11]	> 7.00	> 7.00		+ (a Caco-2 value of 50.5)
CNC(=O)c1ccc(-c2nc3c(F)c(-c4cccc5ccc(F)cc45)c(CCC#N)cc3c3c2cc([C@@H](C)N2CCOCC2=O)n3[C@H]2[C@H]3CN[C@@H]2C3)cn1 [Example 45, 5-(1-((1R,4R,5S)-2-Azabicyclo[2.1.1]hexan-5-yl)-8-(2-cyanoethyl)-6-fluoro-7-(7-fluoronaphthalen-1-yl)-2-((R)-1-(3-oxomorpholino)ethyl)-1H-pyrrolo[3,2-c]quinolin-4-yl)-N-methylpicolinamide]	> 7.00	> 7.00	+++ (a Caco-2 value of >1)	
Cc1cc2c(O[C@@H](C)[C@@H]3CCCN3C)nc3c(F)c(-c4cc(O)cc5ccc(F)cc45)c(CCC#N)cc3c2n1[C@H]1[C@H]2CN[C@@H]1C2 (single isomer, unassigned) [Example 22]	> 7.00	> 7.00		+ (a Caco-2 value of 50.5)
C[C@H](Oc1nc2c(F)c(-c3csc4ccccc34)c(CCC#N)cc2c2c1cc(CN1CCCC1=O)n2[C@H]1[C@H]2CN[C@@H]1C2)[C@@H]1CCCN1C (single isomer, unassigned) [Example 9]	> 7.00	> 7.00		+ (a Caco-2 value of 50.5)
